For one test, the system named is HCT116 cells. The experiment in a line: Antiproliferative activity, Alamar Blue assay, HCT116 cells. To be noted: Homo sapiens, HCT-116, HCT116 cells, read-out: HCT116 antiproliferative activity pIC50 (converted). It counts as cell-based, human. The gist of the method:
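HCT116 cells seeded, adhered 24 h, then exposed to compound for 4 days; Alamar Blue (resazurin) added for 4 h at 37 °C, fluorescence read at 540/590 nm. Viability as % of untreated control, triplicate wells; IC50 by probit analysis, reported as pIC50.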

Another test has as its system PC3 cells. The experiment in a line: EB1 Comet (microtubule disruption) assay. It is filed as cell-based, human. Conditions: Homo sapiens, PC-3, 1 h, 1 hour treatment, read-out: EB1 pLAC (converted). The gist of the method: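 PC3 human prostate cancer cells exposed to compound for 1 h at 37 °C (0.6% DMSO final), methanol-fixed, immunostained for Eb1 and imaged at 20×. Value is the lowest active concentration (LAC): the concentration at which Eb1 foci are absent in at least 50% of treated cells.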

Like-named read-outs stand apart in the source and are kept apart here.

For `CCc1cc2ccc([C@](C)(C#N)CCOc3ccc(C#N)cc3)cc2[nH]c1=O` (single isomer, unassigned) [Compound 275], the IC50 with HCT116 cells (Alamar Blue) was 10 µM.

For the compound `Cc1cc2ccc([C@@](C)(C#N)C3CCc4ccccc43)cc2[nH]c1=O` (single isomer, unassigned) [Compound 385], in the test on HCT116 cells (Alamar Blue), the IC50 is 3.98 µM. The minimal effective concentration in the test on PC3 cells was 10 µM.

As to `Cc1cc2ccc(C(C)(C#N)Cc3cccc(C=Cc4ccccc4)c3)cc2[nH]c1=O` (stereo not drawn) [Compound 179], the IC50 with HCT116 cells (Alamar Blue) was 2 µM. For the same compound, in the test on PC3 cells, the minimal effective concentration is 1.78 µM.

`CCc1cc2ccc(C(C)(C#N)Cc3cccc(C(=N)NO)c3)cc2[nH]c1=O` (stereo not drawn) [Compound 186]: the IC50 in the test on HCT116 cells (Alamar Blue) is 3.98 µM. In the test with PC3 cells, the minimal effective concentration was 3.16 µM.

For `Cc1cc2ccc(C(C)(C#N)Cc3cccc(Oc4ccc(F)cc4)c3)cc2[nH]c1=O` (stereo not drawn) [Compound 192], the IC50 in the test with HCT116 cells (Alamar Blue) was 0.631 µM. Also, the minimal effective concentration in the test on PC3 cells was 1 µM.

Take `CCc1cc2ccc(C(C)(C#N)COCc3ccccc3)cc2[nH]c1=O` (stereo not drawn) [Compound 197]: the IC50 in the test on HCT116 cells (Alamar Blue) was 2 µM.

As to `Cc1cc2ccc(C(C)(C#N)Cc3cccc(I)c3)cc2[nH]c1=O` (stereo not drawn) [Compound 256], the IC50 in the test on HCT116 cells (Alamar Blue) is 0.398 µM. In the test on PC3 cells, the minimal effective concentration is 0.316 µM.

Take `CCc1cc2ccc(C(C)(C#N)Cc3cccc(NC)c3)cc2[nH]c1=O` (stereo not drawn) [Compound 257]: the IC50 in the test with HCT116 cells (Alamar Blue) is 0.631 µM. In addition, the minimal effective concentration in the test with PC3 cells was 0.316 µM.

On to `Cc1cc2ccc(C(C)(C#N)Cc3cccc(OCC4CCOCC4)c3)cc2[nH]c1=O` (stereo not drawn) [Compound 261], for which the IC50 with HCT116 cells (Alamar Blue) is 5.01 µM. In addition, the minimal effective concentration in the test with PC3 cells was 1.78 µM.

`CCc1cc2ccc(C(C)(C#N)Cc3cc(F)ccc3F)cc2[nH]c1=O` (stereo not drawn) [Compound 280]: in the test on HCT116 cells (Alamar Blue), the IC50 is 0.794 µM. Further, the minimal effective concentration in the test with PC3 cells was 1 µM.

`CCc1cc2ccc(C(C)(C#N)Cc3ccc(F)c(F)c3)cc2[nH]c1=O` (stereo not drawn) [Compound 281]: in the test on HCT116 cells (Alamar Blue), the IC50 was 2 µM. The minimal effective concentration in the test on PC3 cells is 0.316 µM.

Turning to `CCc1cc2ccc(C(C)(C#N)Cc3cc(C(F)(F)F)ccc3F)cc2[nH]c1=O` (stereo not drawn) [Compound 283], in the test with HCT116 cells (Alamar Blue), the IC50 was 0.794 µM. The minimal effective concentration in the test with PC3 cells was 1 µM.

For the compound `CCc1cc2ccc(C(C)(C#N)Cc3cccc(OC)c3F)cc2[nH]c1=O` (stereo not drawn) [Compound 286], the IC50 in the test on HCT116 cells (Alamar Blue) was 5.01 µM. Also, the minimal effective concentration in the test on PC3 cells is 0.562 µM.

For the compound `CCc1cc2ccc(C(C)(C#N)Cc3cc(C(C)C)ccc3OC)cc2[nH]c1=O` (stereo not drawn) [Compound 288], in the test with HCT116 cells (Alamar Blue), the IC50 is 10 µM.

For `CCc1cc2ccc(C(C)(C#N)Cc3cccc(/C=N/O)c3)cc2[nH]c1=O` (stereo not drawn) [Compound 299], in the test with HCT116 cells (Alamar Blue), the IC50 is 0.631 µM. For the same compound, in the test on PC3 cells, the minimal effective concentration was 1 µM.

As to `CCc1cc2ccc(C(C)(C#N)CNCc3ccc(C#N)cc3)cc2[nH]c1=O` (stereo not drawn) [Compound 302], the IC50 in the test on HCT116 cells (Alamar Blue) is 5.01 µM. Also, the minimal effective concentration in the test on PC3 cells was 1 µM.

Turning to `Cc1cc2ccc(C(C)(C#N)Cc3cccc(Oc4ccccc4)c3)cc2[nH]c1=O` (stereo not drawn) [Compound 305], in the test on HCT116 cells (Alamar Blue), the IC50 was 0.794 µM. For the same compound, in the test with PC3 cells, the minimal effective concentration is 3.16 µM.

As for `CCc1cc2ccc(C(C)(C#N)Cc3cc(N(C)C)nc(C#N)n3)cc2[nH]c1=O` (stereo not drawn) [Compound 317], the IC50 with HCT116 cells (Alamar Blue) is 5.01 µM. Also, in the test with PC3 cells, the minimal effective concentration was 1 µM.

For the compound `CCc1cc2ccc(C(C)(C#N)Cc3cc(N(C)C)nc(N(C)C)n3)cc2[nH]c1=O` (stereo not drawn) [Compound 320], the IC50 in the test with HCT116 cells (Alamar Blue) is 0.398 µM. In addition, the minimal effective concentration with PC3 cells is 0.316 µM.

In the case of `CCc1cc2ccc(C(C)(C#N)Cc3cc(N(C)C)nc(C)n3)cc2[nH]c1=O` (stereo not drawn) [Compound 322], the IC50 in the test on HCT116 cells (Alamar Blue) is 2 µM. For the same compound, the minimal effective concentration in the test with PC3 cells was 1 µM.

For `CCc1cc2ccc(C(C)(C#N)Cc3cc(C#N)nc(N(C)C)c3)cc2[nH]c1=O` (stereo not drawn) [Compound 325], the IC50 with HCT116 cells is 0.794 µM. Also, the minimal effective concentration in the test with PC3 cells is 3.16 µM.

For the compound `CCc1cc2ccc(C(C)(C#N)Cc3c4ccccc4nn3C)cc2[nH]c1=O` (stereo not drawn) [Compound 347], the IC50 in the test with HCT116 cells is 3.16 µM. Besides, the minimal effective concentration in the test with PC3 cells is 0.562 µM.

With `Cc1cc2ccc(C(C)(C#N)Cc3cccc(/C=C/CCO)c3)cc2[nH]c1=O` (stereo not drawn) [Compound 409], the IC50 in the test on HCT116 cells (Alamar Blue) was 0.398 µM.

The values are drawn from patent US8778966B2, “Quinolinone derivatives as PARP and tank inhibitors” (Janssen Pharmaceutica, NV, priority 2007, dated 2014).
